Assay results from publication PMC9822058, “In Vitro Evaluation of α-amylase and α-glucosidase Inhibition of 2,3-Epoxyprocyanidin C1 and Other Constituents from Pterocarpus erinaceus Poir” (Molecules, 2022).
Where two headings read alike, the source gives them in different places.

Experiments:
[1] = molecular target: α-amylase from Bacillus licheniformis (Bacillus licheniformis, UniProt P06278); assay: biochemical; format: biochemical; details: for inhibition at 50 µg/mL: read-out: α-amylase (% inh. at 50 µg/mL); for α-amylase inhibitory potential (in words): within the tested concentrations
α-amylase from Bacillus licheniformis, sequence (P06278 30-512): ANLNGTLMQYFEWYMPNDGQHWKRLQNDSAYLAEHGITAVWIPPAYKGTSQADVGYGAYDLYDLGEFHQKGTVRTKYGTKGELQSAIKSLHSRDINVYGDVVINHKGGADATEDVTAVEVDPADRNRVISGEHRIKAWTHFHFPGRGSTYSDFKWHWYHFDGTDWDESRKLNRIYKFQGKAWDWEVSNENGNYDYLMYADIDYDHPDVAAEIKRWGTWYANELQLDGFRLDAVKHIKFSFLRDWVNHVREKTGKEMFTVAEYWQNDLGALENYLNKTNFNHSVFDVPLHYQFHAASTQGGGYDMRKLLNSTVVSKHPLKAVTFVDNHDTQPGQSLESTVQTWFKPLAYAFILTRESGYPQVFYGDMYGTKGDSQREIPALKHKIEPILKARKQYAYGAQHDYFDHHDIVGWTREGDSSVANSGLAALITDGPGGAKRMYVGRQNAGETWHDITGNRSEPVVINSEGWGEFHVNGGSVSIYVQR
Procedure: The α-amylase inhibitory activity was evaluated by using the starch– iodine method with some modifications. The enzyme α-amylase from Bacillus licheniformis was used and enzyme solution was prepared with phosphate buffer (20 mM pH = 6.9 phosphate buffer prepared with 6 mM NaCl); then, 50 µL of α-amylase and 25 µL of different concentrations of compound or extract solutions were mixed in a 96-well microplate. The mixture was pre-incubated for 10 min at 37 °C; then, 50 µL of starch solution (0.05%) was added and incubated for 10 min at 37 °C. Following incubation, the reaction was completed by adding HCl (0.1 M, 25 µL) and Lugol (100 µL) solutions, and the absorbance was recorded at 565 nm.

[2] = tested on: α-glucosidase from Saccharomyces cerevisiae; assay: α-glucosidase inhibitory assay (PNPG substrate); format: biochemical; details: for α-glucosidase (% inh. at 50 µg/mL): highest test concentration; for α-glucosidase inhibitory potential (in words): within the tested concentrations
Procedure: The α-glucosidase inhibitory activity was evaluated according to the method described previously. 50 µL of phosphate buffer (0.01 M pH 6.9), 10 µL of different concentrations of compound or extract solution, 50 µL of α-glucosidase from Saccharomyces cerevisiae in phosphate buffer (0.01 M pH 6.0) and PNPG (4-N-nitrophenyl-α-D-glucopyranoside) 25 µL in phosphate buffer (0.01 M pH 6.9) were mixed in a 96-well microplate. The solution was then incubated for 20 min at 37 °C.

STZ-induced diabetes = details: doses of 20 and 40 mg/kg; cited from earlier work
[3] = read-out: α-amylase IC50 (converted)

| SMILES | inhibition at 50 µg/mL [1] | α-glucosidase (% inh. at 50 µg/mL) [2] | IC50 [1, 3] | α-glucosidase IC50 [2] | antidiabetic potential in STZ-induced diabetic rats (STZ-induced diabetes) | IC50 [1] | α-amylase inhibitory potential (in words) [1] | α-glucosidase inhibitory potential (in words) [2] |
| --- | --- | --- | --- | --- | --- | --- | --- | --- |
| C[C@H]1O[C@H](O[C@H]2[C@H](O)[C@@H](O)[C@@H](O[C@H]3[C@H](O)[C@@H](O)C(O)O[C@@H]3CO)O[C@@H]2CO)[C@H](O)[C@@H](O)[C@@H]1N[C@H]1C=C(CO)[C@@H](O)[C@H](O)[C@H]1O (some centres unmarked) [Acarbose, reference compound] | 72.5 ± 1.5% | 81.7 ± 0.8% | – | – | – | – | – | – |
| Oc1cc(O)c2c(c1)OC1(c3ccc(O)c(O)c3)OC1C2c1c(O)cc(O)c2c1OC(c1ccc(O)c(O)c1)C(O)C2c1c(O)cc(O)c2c1OC(c1ccc(O)c(O)c1)C(O)C2 (centres unmarked) [compound 1, 2,3-Epoxyprocyanidin C1] | 34.3 ± 0.7% | 53.4 ± 1.6% | > 57.8 µM | 41.6 ± 1.0 µg/mL | – | – | – | – |
| C[C@H]1C(=O)CC[C@@H]2[C@]1(C)CC[C@H]1[C@@]2(C)CC[C@@]2(C)[C@@H]3CC(C)(C)CC[C@]3(C)CC[C@]12C [compound 2, friedelin] | 21.5 ± 0.6% | 32.1 ± 0.1% | – | >50 µg/mL | antidiabetic potential | > 117 µM | relatively low | relatively low |
| C=C(C)[C@@H]1CC[C@]2(CO)CC[C@]3(C)[C@H](CC[C@@H]4[C@@]5(C)CC[C@H](O)C(C)(C)[C@@H]5CC[C@]43C)[C@@H]12 [compound 3, betulin] | 19.3 ± 0.4% | 28.5 ± 0.3% | – | >50 µg/mL | – | > 113 µM | relatively low | relatively low |
| COc1ccc(C(C)C(=O)c2ccc(O)cc2O)cc1 (centres unmarked) [compound 4, angolensin] | 33.7 ± 0.5% | 54.1 ± 1.3% | > 184 µM | 43.4 ± 0.5 µg/mL | – | – | – | – |
| COc1cc(O)c2c(=O)c(-c3ccc(O)cc3)coc2c1 [compound 5, 7-methoxygenistein] | 32.2 ± 1% | 50.6 ± 1.2% | – | 47.6 ± 0.9 µg/mL | – | > 176 µM | – | – |
| COc1ccc2c(=O)c(-c3ccc(O)cc3)coc2c1 [compound 6, 7-methoxydaidzein] | 34.2 ± 0.5% | 51.8 ± 0.9% | > 186 µM | 46.3 ± 0.2 µg/mL | – | – | – | – |
| COc1c(-c2ccc(O)c(O)c2)oc2cc(O)cc(O)c2c1=O [compound 7, 3-O-methyl quercetin] | 50.2 ± 2% | 54.0 ± 1.0% | 152 µM | 39.5 ± 1.2 µg/mL | – | – | – | – |
| O=C(O)[C@H]1O[C@@H](Oc2cc(O)c3c(=O)cc(-c4ccc(O)cc4)oc3c2)[C@H](O)[C@@H](O)[C@@H]1O [compound 8, apigenin 7-O-glucoronide] | 50.9 ± 0.8% | 55.2 ± 1.1% | 109 µM | 40.9 ± 1.3 µg/mL | – | – | – | – |
| O=C1C[C@@H](c2ccc(O)cc2)Oc2cc(O[C@@H]3O[C@H](CO)[C@@H](O)[C@H](O)[C@H]3O)cc(O)c21 [compound 9, naringenin 7-O-β-D-glucopyranoside] | 50.5 ± 1.2% | 53.7 ± 0.4% | – | 44.8 ± 0.6 µg/mL | – | – | – | – |
| COc1cc2c(=O)oc3c(OC)c(OC4OC(COC5OC(C)C(O)C(O)C5O)C(O)C(O)C4O)cc4c(=O)oc(c1OC)c2c34 (centres unmarked) [compound 10, 3,3′,4-Trimethoxy-4′-rutinosylellagic acid] | 45.4 ± 0.3% | 51.8 ± 0.9% | > 76.6 µM | 45.0 ± 0.8 µg/mL | – | – | – | – |
| COc1cc2c(=O)oc3c(OC)c(OC4OC(COC5OC(C)C(OC(C)=O)C(OC(C)=O)C5OC(C)=O)C(OC(C)=O)C(OC(C)=O)C4OC(C)=O)cc4c(=O)oc(c1OC)c2c34 (centres unmarked) [compound 11, 3,3′,4-Trimethoxy-4′-hexaacetylrutinosylellagic acid] | 43.5 ± 0.6% | 50.7 ± 0.2% | > 55.3 µM | 47.5 ± 0.4 µg/mL | – | – | – | – |
